Some test systems named below: 786-0; CCRF-CEM; HCC 2998; HCT-116; HT-29; KM12; M14; NCI-H226; NCI-H522; OVCAR-3; RPMI-8226; RXF 393; SF-295; SF-539; SK-OV-3; SNB-19; SNB-75; U-251; UACC-257; UO-31.
Holding throughout (assay): NCI tumour cell line growth inhibition, 48 h

From ChEMBL document CHEMBL1201862, “PubChem BioAssay data set” (2004) come the findings set out here.

The structures appear in SMILES notation.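 Test compounds were applied to cells in 96-well plates for 48 hours at 5 doses. GI50: concentration for 50% inhibition of growth.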 Calls of active or inactive are those of the source. Rule as the data show it: active = GI50 up to about 1.1 µM and inactive = higher.

On to `CC(=O)c1sc2c(c1OC(=O)c1ccc(Cl)cc1Cl)c(=O)n(-c1ccccc1)c(=S)n2-c1ccccc1`, for which the GI50 with 786-0 was 0.47 µM (active); in the test on CCRF-CEM, 0.26 µM (active); in the test with HCC 2998 it was 6.37 µM (inactive); in the test with HCT-116, 2.96 µM (inactive); in the test on HT-29 it was 0.28 µM (active); in the test with KM12, 4.14 µM (inactive). The GI50 in the test on M14 is 0.303 µM (active); with NCI-H226, 0.258 µM (active); in the test with NCI-H522 it was 1.2 µM (inactive); with OVCAR-3, 4.14 µM (inactive); in the test on RPMI-8226, 0.213 µM (active); in the test on RXF 393 it was 0.382 µM (active). Also, the GI50 in the test on SF-295 was 0.267 µM (active); with SF-539, 0.251 µM (active); with SK-OV-3 it was 0.3 µM (active); with SNB-19 it was 0.673 µM (active); in the test with SNB-75, 0.472 µM (active); in the test on U-251, 0.342 µM (active). Further, the values for the GI50 with UACC-257 and in the test on UO-31 were 3.88 µM (inactive) and 0.347 µM (active), respectively.

Regarding `O=C1c2cc([N+](=O)[O-])sc2C(=O)c2cc([N+](=O)[O-])sc21`, the GI50 in the test on 786-0 is 2.52 µM (inactive); in the test with CCRF-CEM it was 0.711 µM (active); with HCC 2998 it was 3.05 µM (inactive); with HCT-116 it was 1.67 µM (inactive); in the test on HT-29, 3.24 µM (inactive); in the test with KM12, 3.61 µM (inactive). In addition, the GI50 in the test on M14 was 3.78 µM (inactive); in the test with NCI-H226, 12.3 µM (inactive); in the test with NCI-H522 it was 1.44 µM (inactive); with OVCAR-3, 2.41 µM (inactive); with RPMI-8226, 0.535 µM (active); with RXF 393, 6.03 µM (inactive). In addition, the GI50 with SF-295 was 8.2 µM (inactive); in the test with SF-539, 3.2 µM (inactive); in the test with SK-OV-3, 10.1 µM (inactive); with SNB-19, 3.85 µM (inactive); in the test on SNB-75, 12.6 µM (inactive); in the test on U-251, 1.79 µM (inactive). The GI50 with UACC-257 is 5.16 µM (inactive); with UO-31, 3.19 µM (inactive).

For the compound `C=CCCCCCC(O)C(O)C/C=C\C/C=C\CC` (stereo not given), the GI50 in the test on 786-0, in the test with CCRF-CEM, with HCC 2998, with HCT-116, with HT-29 and in the test on KM12 was > 18.8 µM (inactive) throughout. In addition, the GI50 with M14, in the test with NCI-H226, in the test with NCI-H522, in the test with OVCAR-3, in the test with RPMI-8226 and in the test on RXF 393 was > 18.8 µM (inactive) throughout. Also, the GI50 with SF-295, in the test on SF-539, in the test with SK-OV-3, with SNB-19, in the test with SNB-75 and in the test with U-251 was > 18.8 µM (inactive) each time. The GI50 in the test on UACC-257 and in the test with UO-31 was > 18.8 µM (inactive) each time.

On to `O=c1[nH]cc(NCCCl)c(=O)[nH]1`, for which the GI50 with 786-0, in the test with CCRF-CEM, in the test on HCC 2998, with HCT-116, in the test with HT-29 and in the test on KM12 was > 100 µM (inactive) throughout. The GI50 with M14, in the test with NCI-H226, with NCI-H522, in the test with OVCAR-3, with RPMI-8226 and in the test with RXF 393 was > 100 µM (inactive) in each case. Further, the GI50 in the test with SF-295, in the test with SF-539, with SK-OV-3, in the test with SNB-19, in the test on SNB-75 and in the test with U-251 was > 100 µM (inactive) throughout. Moreover, the GI50 in the test with UACC-257 and in the test on UO-31 was > 100 µM (inactive) throughout.

`CCN1C(=O)/C(=C2\SC(c3ccccc3)(c3ccccc3)c3ccccc32)SC1=S`: the GI50 with 786-0 was 43.3 µM (inactive); with CCRF-CEM it was > 100 µM (inactive); with HCC 2998, > 100 µM (inactive); in the test with HCT-116, 47 µM (inactive); in the test on HT-29, > 100 µM (inactive); with KM12, > 100 µM (inactive). The GI50 in the test on M14 is 93.1 µM (inactive); in the test on NCI-H226, > 100 µM (inactive); with NCI-H522, > 100 µM (inactive); in the test with OVCAR-3, 51.9 µM (inactive); in the test with RPMI-8226, > 100 µM (inactive); with RXF 393, > 100 µM (inactive). The GI50 in the test on SF-295 was 24.4 µM (inactive); in the test on SF-539, 46.7 µM (inactive); with SK-OV-3, > 100 µM (inactive); in the test on SNB-19, 10.1 µM (inactive); in the test with SNB-75, 53.1 µM (inactive); with U-251, 44.7 µM (inactive). For the same compound, the GI50 in the test with UACC-257 and with UO-31 was > 100 µM (inactive) in each case.

Turning to `CCCC(N)C(=O)c1ccccc1` (stereo not given), the GI50 in the test with 786-0, in the test with CCRF-CEM, in the test on HCC 2998, in the test with HCT-116, with HT-29 and in the test with KM12 was > 100 µM (inactive) throughout. For the same compound, the GI50 in the test with M14, in the test with NCI-H226, in the test on NCI-H522, in the test with OVCAR-3, in the test with RPMI-8226 and with RXF 393 was > 100 µM (inactive) throughout. The GI50 in the test with SF-295, in the test on SF-539, with SK-OV-3, in the test on SNB-19, in the test on SNB-75 and in the test with U-251 was > 100 µM (inactive) in each case. Moreover, the GI50 in the test with UACC-257 and with UO-31 was > 100 µM (inactive) each time.

In the case of `CSc1c(C#N)c(N)nc2c(/N=N\c3ccc(Cl)cc3)c(N)nn12`, the GI50 in the test on 786-0 is 2.86 µM (inactive); in the test on CCRF-CEM, 2.17 µM (inactive); with HCC 2998, 5.94 µM (inactive); with HCT-116, 7.87 µM (inactive); with HT-29 it was 3.34 µM (inactive); in the test with KM12 it was 6.14 µM (inactive). Besides, the GI50 in the test with M14 is 18.6 µM (inactive); in the test with NCI-H226 it was 16.9 µM (inactive); with NCI-H522, 6.19 µM (inactive); with OVCAR-3 it was 1.85 µM (inactive); with RPMI-8226, 2.6 µM (inactive); in the test on RXF 393, 2.55 µM (inactive). Also, the GI50 with SF-295 is 22.9 µM (inactive); with SF-539, 5.85 µM (inactive); in the test with SK-OV-3, 33 µM (inactive); in the test on SNB-19, 17.3 µM (inactive); with SNB-75, 7.41 µM (inactive); with U-251 it was 4.33 µM (inactive). Also, the GI50 in the test on UACC-257 is 3.27 µM (inactive); in the test on UO-31 it was 2.13 µM (inactive).

In the case of `COC1=C(NC(C)=O)C(=O)c2nc3n(c2C1=O)CCC3`, the GI50 was 19.5 µM (inactive) in the test with 786-0; 3.78 µM (inactive) in the test with CCRF-CEM; 23.7 µM (inactive) with HCC 2998; 15.7 µM (inactive) with HCT-116; 26.5 µM (inactive) with HT-29; 25.7 µM (inactive) in the test with KM12. Besides, the GI50 was 18.2 µM (inactive) in the test with M14; 26.7 µM (inactive) in the test with NCI-H226; 22.5 µM (inactive) in the test with NCI-H522; 15.7 µM (inactive) in the test with OVCAR-3; 24.4 µM (inactive) with RPMI-8226; 17.7 µM (inactive) in the test on RXF 393. Further, the GI50 was 20.5 µM (inactive) with SF-295; 18.6 µM (inactive) in the test on SF-539; 41.6 µM (inactive) with SK-OV-3; 26.7 µM (inactive) in the test on SNB-19; 17.6 µM (inactive) with SNB-75; 23.8 µM (inactive) in the test on U-251. Further, the GI50 is 16.6 µM (inactive) with UACC-257 and 24.9 µM (inactive) in the test with UO-31.

Regarding `Cc1ccccc1N(C)S(=O)(=O)c1ccccc1[N+](=O)[O-]`, the GI50 in the test with 786-0 is 87.3 µM (inactive); in the test on CCRF-CEM it was 35.8 µM (inactive); in the test on HCC 2998, 51.3 µM (inactive); in the test with HCT-116, 41.1 µM (inactive); in the test with HT-29, 32.2 µM (inactive); in the test with KM12 it was 55.7 µM (inactive). The GI50 in the test on M14 is 20.8 µM (inactive); in the test with NCI-H226, 33.1 µM (inactive); in the test on NCI-H522, 36.1 µM (inactive); in the test with OVCAR-3 it was 46.3 µM (inactive); in the test on RPMI-8226 it was 30.1 µM (inactive); in the test on RXF 393 it was 21.3 µM (inactive). In addition, the GI50 is 42.5 µM (inactive) in the test with SF-295; 36.5 µM (inactive) in the test with SF-539; 53.6 µM (inactive) in the test on SK-OV-3; 67.8 µM (inactive) in the test on SNB-19; 47.6 µM (inactive) with SNB-75; 36.3 µM (inactive) with U-251. Further, the GI50 in the test with UACC-257 is 57 µM (inactive); in the test on UO-31, 34.3 µM (inactive).

In the case of `CC(=O)NC(CCCOC(C)=O)C(=O)NC(CCCOC(C)=O)C(=O)NC(CCCOC(C)=O)C(=O)NC(Cc1ccc([N+](=O)[O-])cc1)C(=O)NCC(=O)OCc1ccccc1` (stereo not given), the GI50 with 786-0, in the test on CCRF-CEM, in the test on HCC 2998, in the test on HCT-116, with HT-29 and with KM12 was > 100 µM (inactive) throughout. Further, the GI50 with M14, in the test on NCI-H226, in the test on NCI-H522, with OVCAR-3, with RPMI-8226 and with RXF 393 was > 100 µM (inactive) each time. Also, the GI50 with SF-295, in the test on SF-539, in the test on SK-OV-3, with SNB-19, in the test with SNB-75 and with U-251 was > 100 µM (inactive) in each case. In addition, the GI50 with UACC-257 and with UO-31 was > 100 µM (inactive) in each case.
